Activity calls are given as the source filed them.
Experiments:
Type in all cases: functional
Caspase-3 = biological target: T1, Caspase-3 (Homo sapiens, UniProt P42574); assay: SAR Analysis of small molecule inhibitors of Sentrin-specific proteases (SENPs) using a Caspase-3 Selectivity assay. [Related pubchem assays (depositor defined):AID2540, AID2599, AID434973, AID489001]
T1 sequence (P42574 whole entry): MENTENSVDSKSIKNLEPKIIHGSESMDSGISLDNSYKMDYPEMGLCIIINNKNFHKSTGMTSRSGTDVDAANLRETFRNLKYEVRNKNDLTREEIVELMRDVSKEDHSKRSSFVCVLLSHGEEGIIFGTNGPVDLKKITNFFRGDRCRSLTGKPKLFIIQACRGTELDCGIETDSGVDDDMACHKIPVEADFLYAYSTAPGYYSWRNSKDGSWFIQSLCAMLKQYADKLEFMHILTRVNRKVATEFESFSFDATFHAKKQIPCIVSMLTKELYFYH

[1] = biological target: T2, Replicative DNA helicase DnaB (Mycobacterium tuberculosis, UniProt P9WMR3); assay: DnaB intein splicing inhibitors, dose response, biochemical, cell-free fluorescence (AID 449749)
T2 sequence (P9WMR3 whole entry): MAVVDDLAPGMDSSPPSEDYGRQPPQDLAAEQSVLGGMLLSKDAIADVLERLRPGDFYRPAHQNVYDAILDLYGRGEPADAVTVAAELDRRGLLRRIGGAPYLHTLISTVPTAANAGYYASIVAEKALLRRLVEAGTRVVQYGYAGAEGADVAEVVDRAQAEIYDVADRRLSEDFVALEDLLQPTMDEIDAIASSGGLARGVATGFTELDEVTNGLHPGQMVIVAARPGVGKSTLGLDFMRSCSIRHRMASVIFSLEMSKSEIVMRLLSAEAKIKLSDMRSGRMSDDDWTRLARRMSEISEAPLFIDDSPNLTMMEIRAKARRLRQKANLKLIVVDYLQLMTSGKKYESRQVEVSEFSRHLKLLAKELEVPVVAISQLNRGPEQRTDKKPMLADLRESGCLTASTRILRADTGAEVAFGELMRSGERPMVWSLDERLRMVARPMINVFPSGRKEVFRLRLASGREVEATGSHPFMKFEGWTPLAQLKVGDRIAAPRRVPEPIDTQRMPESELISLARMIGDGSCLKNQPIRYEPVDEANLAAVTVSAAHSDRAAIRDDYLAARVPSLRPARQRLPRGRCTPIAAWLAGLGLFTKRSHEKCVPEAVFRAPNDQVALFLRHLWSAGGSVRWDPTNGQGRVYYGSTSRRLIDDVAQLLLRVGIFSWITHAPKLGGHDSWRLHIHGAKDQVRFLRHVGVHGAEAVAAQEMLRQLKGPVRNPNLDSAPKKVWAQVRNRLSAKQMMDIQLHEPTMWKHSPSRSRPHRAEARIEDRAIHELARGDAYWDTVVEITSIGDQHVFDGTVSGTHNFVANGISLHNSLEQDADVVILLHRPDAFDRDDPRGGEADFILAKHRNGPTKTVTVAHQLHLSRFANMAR

[2] = biological target: T3, Sentrin-specific protease 7 (Homo sapiens, UniProt Q9BQF6); assay: SENP7 protease inhibitors, SAR follow-up, biochemical, luminescence (AID 504497)
T3 sequence (Q9BQF6 whole entry): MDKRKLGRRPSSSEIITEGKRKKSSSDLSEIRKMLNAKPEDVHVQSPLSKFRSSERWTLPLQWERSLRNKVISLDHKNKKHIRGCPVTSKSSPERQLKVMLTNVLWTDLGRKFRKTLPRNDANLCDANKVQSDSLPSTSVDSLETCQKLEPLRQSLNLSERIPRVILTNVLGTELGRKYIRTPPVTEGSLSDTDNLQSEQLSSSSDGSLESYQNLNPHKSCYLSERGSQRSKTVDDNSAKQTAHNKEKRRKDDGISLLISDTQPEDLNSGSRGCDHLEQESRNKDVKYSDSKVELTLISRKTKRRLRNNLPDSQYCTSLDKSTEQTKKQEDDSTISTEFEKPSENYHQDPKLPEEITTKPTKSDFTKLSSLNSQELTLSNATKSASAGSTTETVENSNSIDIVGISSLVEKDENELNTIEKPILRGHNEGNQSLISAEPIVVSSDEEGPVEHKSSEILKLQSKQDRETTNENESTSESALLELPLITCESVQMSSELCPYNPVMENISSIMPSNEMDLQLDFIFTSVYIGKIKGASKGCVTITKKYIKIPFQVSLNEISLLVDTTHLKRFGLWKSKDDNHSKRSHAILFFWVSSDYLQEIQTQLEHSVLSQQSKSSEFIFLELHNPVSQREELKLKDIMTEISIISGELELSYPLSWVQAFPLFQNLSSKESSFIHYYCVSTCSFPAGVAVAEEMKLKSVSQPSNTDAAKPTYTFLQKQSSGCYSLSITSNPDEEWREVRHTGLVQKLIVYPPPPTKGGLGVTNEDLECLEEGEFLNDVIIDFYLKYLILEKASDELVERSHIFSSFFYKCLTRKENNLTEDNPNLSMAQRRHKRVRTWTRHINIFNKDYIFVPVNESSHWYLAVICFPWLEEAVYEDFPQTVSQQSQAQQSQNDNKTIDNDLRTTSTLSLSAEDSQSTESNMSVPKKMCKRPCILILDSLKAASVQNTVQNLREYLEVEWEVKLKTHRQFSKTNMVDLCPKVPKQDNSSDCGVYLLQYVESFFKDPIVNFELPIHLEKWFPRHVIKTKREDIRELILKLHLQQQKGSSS

Aurora kinase B = Aurora kinase B (Homo sapiens, UniProt Q96GD4)
Chain of Aurora kinase B (Q96GD4 whole entry): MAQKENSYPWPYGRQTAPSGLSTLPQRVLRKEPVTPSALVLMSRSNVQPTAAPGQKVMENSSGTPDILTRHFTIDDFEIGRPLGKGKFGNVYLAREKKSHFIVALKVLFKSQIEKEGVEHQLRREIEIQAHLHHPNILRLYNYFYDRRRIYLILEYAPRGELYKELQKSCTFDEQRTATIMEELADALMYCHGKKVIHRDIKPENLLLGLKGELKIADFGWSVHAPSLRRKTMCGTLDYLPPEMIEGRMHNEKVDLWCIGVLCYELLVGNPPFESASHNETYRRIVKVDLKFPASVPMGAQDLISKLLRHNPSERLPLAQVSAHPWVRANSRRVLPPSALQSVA

[3] = biological target: Serine/threonine-protein kinase TAO1 (Homo sapiens, UniProt Q7L7X3)
Chain of Serine/threonine-protein kinase TAO1 (Q7L7X3 whole entry): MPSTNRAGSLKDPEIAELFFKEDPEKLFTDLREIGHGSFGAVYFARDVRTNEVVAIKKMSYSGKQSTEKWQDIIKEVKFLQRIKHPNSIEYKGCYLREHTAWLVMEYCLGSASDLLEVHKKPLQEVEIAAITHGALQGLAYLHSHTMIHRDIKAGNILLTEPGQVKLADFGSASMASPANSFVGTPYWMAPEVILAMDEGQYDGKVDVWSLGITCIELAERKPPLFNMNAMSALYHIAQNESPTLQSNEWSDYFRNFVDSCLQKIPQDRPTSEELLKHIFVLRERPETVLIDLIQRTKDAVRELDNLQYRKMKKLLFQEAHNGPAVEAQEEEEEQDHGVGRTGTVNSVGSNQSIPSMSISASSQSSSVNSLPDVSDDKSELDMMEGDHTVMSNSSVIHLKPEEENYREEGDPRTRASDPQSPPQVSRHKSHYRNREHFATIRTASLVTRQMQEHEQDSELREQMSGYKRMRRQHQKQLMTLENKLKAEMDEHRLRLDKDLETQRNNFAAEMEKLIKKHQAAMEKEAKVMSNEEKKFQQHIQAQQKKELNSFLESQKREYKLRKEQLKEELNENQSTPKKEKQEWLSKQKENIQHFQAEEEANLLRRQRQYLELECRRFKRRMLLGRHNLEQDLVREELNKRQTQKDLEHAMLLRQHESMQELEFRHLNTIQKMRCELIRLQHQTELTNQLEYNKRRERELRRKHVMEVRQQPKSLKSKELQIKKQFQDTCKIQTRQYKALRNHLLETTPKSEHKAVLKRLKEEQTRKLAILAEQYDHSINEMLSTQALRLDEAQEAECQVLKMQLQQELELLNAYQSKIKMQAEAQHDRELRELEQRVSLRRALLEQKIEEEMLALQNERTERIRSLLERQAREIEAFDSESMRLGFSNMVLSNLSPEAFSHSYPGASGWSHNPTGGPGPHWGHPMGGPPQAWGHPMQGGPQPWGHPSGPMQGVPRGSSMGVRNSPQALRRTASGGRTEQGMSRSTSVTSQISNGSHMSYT

[4] = biological target: Macrophage-stimulating protein receptor (Homo sapiens, UniProt Q04912); assay: Navigating the Kinome. Panel member name: MST1R
[5] = biological target: Mitogen-activated protein kinase kinase kinase kinase 4 (Homo sapiens, UniProt O95819)
Chain of Mitogen-activated protein kinase kinase kinase kinase 4 (O95819 whole entry): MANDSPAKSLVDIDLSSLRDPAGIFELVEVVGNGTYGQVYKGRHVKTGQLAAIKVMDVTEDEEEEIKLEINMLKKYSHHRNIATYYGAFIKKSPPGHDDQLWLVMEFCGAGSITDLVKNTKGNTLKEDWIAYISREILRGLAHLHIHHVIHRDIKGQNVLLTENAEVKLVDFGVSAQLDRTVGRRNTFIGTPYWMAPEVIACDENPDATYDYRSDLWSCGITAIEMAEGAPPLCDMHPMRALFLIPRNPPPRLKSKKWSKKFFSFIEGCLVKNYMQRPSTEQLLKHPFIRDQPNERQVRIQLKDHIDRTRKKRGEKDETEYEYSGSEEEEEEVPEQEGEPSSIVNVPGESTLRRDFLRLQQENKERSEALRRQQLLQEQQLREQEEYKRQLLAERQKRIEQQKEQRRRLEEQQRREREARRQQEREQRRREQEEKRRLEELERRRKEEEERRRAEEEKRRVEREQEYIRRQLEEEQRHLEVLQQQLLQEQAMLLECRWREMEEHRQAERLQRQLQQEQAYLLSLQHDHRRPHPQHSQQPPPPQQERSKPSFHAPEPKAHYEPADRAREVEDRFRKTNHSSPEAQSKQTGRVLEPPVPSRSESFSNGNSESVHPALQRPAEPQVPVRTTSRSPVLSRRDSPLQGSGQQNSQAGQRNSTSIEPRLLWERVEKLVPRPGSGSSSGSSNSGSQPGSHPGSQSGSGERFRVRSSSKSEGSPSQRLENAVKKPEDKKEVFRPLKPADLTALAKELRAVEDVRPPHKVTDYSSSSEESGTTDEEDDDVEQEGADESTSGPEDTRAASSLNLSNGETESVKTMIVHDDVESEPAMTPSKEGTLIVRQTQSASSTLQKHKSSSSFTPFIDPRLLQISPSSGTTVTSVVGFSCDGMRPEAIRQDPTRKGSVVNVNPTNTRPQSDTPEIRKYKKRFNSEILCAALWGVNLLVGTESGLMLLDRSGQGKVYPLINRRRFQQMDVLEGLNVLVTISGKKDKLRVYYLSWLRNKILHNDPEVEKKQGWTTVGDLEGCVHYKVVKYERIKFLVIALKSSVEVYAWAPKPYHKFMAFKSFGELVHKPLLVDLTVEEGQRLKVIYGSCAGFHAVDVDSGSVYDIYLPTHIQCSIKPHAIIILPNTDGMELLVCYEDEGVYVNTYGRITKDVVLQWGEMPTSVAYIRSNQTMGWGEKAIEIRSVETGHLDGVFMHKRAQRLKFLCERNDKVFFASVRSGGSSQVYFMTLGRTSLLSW

[6] = biological target: Serine/threonine-protein kinase PAK 4 (Homo sapiens, UniProt O96013);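 also: value obtained within a kinome profiling panel in which PAK4 was one of the panel members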
Chain of Serine/threonine-protein kinase PAK 4 (O96013 whole entry): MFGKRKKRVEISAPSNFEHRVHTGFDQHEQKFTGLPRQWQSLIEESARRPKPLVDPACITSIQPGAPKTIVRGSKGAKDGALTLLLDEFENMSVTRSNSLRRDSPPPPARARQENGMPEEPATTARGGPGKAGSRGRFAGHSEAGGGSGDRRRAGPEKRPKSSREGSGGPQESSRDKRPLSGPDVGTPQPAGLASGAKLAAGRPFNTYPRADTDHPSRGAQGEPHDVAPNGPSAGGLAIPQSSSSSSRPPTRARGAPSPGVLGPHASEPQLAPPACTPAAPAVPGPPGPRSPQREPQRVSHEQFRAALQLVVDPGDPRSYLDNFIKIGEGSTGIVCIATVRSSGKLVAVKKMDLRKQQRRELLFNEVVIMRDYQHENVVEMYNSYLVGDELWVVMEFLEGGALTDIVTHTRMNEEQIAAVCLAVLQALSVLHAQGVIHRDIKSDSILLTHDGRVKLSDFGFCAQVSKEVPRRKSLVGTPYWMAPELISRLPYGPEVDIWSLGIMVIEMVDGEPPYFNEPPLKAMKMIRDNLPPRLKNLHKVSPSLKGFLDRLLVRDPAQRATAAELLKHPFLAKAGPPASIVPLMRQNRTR

[7] = biological target: Serine/threonine-protein kinase TBK1 (Homo sapiens, UniProt Q9UHD2); assay: Navigating the Kinome. Panel member name: TBK1
Chain of Serine/threonine-protein kinase TBK1 (Q9UHD2 whole entry): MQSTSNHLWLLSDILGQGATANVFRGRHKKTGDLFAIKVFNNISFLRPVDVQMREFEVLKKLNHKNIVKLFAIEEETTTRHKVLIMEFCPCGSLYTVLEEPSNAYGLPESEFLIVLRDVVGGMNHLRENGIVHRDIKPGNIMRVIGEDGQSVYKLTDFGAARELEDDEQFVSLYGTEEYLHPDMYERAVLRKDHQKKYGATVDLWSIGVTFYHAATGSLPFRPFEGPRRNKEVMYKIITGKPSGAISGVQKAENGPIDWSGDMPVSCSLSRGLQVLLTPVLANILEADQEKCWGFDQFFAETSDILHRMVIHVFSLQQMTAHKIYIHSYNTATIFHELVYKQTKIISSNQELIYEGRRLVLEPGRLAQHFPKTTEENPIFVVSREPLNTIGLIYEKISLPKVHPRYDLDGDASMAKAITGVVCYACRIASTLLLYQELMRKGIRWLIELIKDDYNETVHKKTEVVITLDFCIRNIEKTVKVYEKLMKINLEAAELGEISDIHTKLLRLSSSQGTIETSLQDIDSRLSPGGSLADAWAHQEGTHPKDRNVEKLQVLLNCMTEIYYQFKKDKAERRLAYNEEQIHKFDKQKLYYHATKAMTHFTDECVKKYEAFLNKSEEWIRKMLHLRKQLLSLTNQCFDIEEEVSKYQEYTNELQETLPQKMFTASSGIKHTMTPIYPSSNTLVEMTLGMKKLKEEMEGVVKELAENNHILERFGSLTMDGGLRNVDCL

[8] = biological target: Glycogen synthase kinase-3 alpha (Homo sapiens, UniProt P49840);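 also: GSK3A result taken from a broad kinome-wide kinase panel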
[9] = biological target: Cyclin-dependent kinase 5 (Homo sapiens, UniProt Q00535);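 also: CDK5 measured as one member of a kinase profiling panel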
Chain of Cyclin-dependent kinase 5 (Q00535 whole entry): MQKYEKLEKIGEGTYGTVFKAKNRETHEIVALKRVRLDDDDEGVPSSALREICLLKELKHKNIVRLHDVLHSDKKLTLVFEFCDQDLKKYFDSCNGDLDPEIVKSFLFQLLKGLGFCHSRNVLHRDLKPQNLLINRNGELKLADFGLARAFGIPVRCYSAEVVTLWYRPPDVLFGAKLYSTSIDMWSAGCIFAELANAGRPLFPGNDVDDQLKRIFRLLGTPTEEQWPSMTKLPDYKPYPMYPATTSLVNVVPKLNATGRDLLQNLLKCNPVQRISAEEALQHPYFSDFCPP

[10] = biological target: Tyrosine-protein kinase ABL1 (Homo sapiens, UniProt P00519)
[11] = biological target: Rho-associated protein kinase 1 (Homo sapiens, UniProt Q13464);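 also: measured within a broad kinome-wide panel profiling many kinases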
[12] = biological target: Dual specificity mitogen-activated protein kinase kinase 2 (Homo sapiens, UniProt P36507); assay: Navigating the Kinome. Panel member name: MAP2K2
Chain of Dual specificity mitogen-activated protein kinase kinase 2 (P36507 whole entry): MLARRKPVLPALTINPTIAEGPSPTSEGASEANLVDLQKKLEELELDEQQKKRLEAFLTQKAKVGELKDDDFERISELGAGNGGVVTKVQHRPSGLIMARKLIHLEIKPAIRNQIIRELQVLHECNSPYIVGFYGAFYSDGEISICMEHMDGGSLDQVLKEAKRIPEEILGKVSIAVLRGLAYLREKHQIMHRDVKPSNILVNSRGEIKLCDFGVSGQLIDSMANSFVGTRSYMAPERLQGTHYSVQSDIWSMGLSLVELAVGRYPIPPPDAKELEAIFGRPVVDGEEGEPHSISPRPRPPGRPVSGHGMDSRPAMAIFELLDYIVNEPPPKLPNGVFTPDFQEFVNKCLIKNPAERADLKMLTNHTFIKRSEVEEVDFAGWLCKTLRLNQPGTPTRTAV

[13] = biological target: Vascular endothelial growth factor receptor 1 (Homo sapiens, UniProt P17948);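 also: measured within a kinome-wide profiling panel, FLT1 as the panel member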

Cc1ccc(NC(=O)COc2cccc(/C=C3\SC(=S)N(CCC(=O)O)C3=O)c2)cc1Cl
IC50 (Caspase-3): > 99 µM (inactive)
AC50 [1]: 6.13 µM (active)
IC50 [2]: 12.7 µM (active)

COc1cccc(C(C)NC(=O)c2ccc(-c3ccncc3)s2)c1 (stereo not given)
Ki (Aurora kinase B): 0.398 µM (active)
Ki [3]: > 6.31 µM (inactive)
Ki [4]: > 3.98 µM (inactive)
Ki [5]: 5.01 µM (active)
Ki [6]: > 5.01 µM (inactive)
Ki [7]: > 3.16 µM (inactive)
Ki [8]: 1 µM (active)
Ki [9]: > 3.16 µM (inactive)
Ki [10]: > 2.51 µM (inactive)
Ki [11]: 0.00126 µM (active)
Ki [12]: > 3.98 µM (inactive)
Ki [13]: > 3.98 µM (inactive)
